In patent US20220251124A1, “3,5-BIS(PHENYL)-1H-HETEROARYL DERIVATIVES AS MEDICAMENTS” (INSTITUTE OF BIOTECHNOLOGY CAS, V.V.I., priority 2019, published 2022):

Columns and labels:
Assay type in all cases: cell-based
MDA-MB-231 [1] = assay: cellular ROS, DCF-DA probe, flow cytometry; settings: 5 μM
Description: (§1) The effect of compound 1 on generation of cellular reactive oxygen species (ROS) was evaluated in MCF7 and MDA-MB-231 cells using a cell permeable ROS probe 2′,7′-dichlorodihydrofluorescein diacetate (DCF-DA; Sigma-Aldrich) that measures several reactive species and becomes fluorescent upon oxidation. Cells treated with compound 1 or compound 2 (5 μM) for the described time interval were stained with the probe and then analyzed via Flow cytometry.

MCF7 [2] = assay: cellular ROS, DCF-DA probe, flow cytometry; settings: 5 μM
Description: as §1

MDA-MB-231 [3] = assay: cell cycle distribution, Vybrant DyeCycle Violet, flow cytometry; settings: 1 μM
Description: (§2) In order to define the effect on cellular level, we investigated the effect of compound 1 and 2 at non-cytotoxic concentrations of the drugs (1 μM) on cell cycle. Cells were cultivated with the compounds for 24 and 48 hrs and then stained with Vybrant DyeCycle VioletReady Flow reagent (ThermoFisher Scientific) that binds to DNA and analyzed by Flow cytometry and Kaluza program to define the proportions of G1,S and G2/M phases of cell cycle. It is evident that both compounds lead to accumulation of cells in G1 phase if the cell cycle, which become more prominent at later time points (see Table 12, 13).

MCF7 [4] = assay: as above; settings: 1 μM
Description: as §2

MCF7 cells = assay: crystal violet assay, cellular viability (cytostatic and cytotoxic effect), 48 hrs; settings: Homo sapiens, MCF7, 48 h, MCF7 (parental/control), crystal violet, read-out: IC50
Description: (§3) Compound 1 and a comparative compound deferasirox (DFX) were tested in their efficacy to kill/suppress proliferation of malignant breast cancer MCF7 cells representing estrogen-dependent type of breast cancer. Briefly, 10.000 cells per well were seeded in a 96-well plate on one day and the next day the tested compounds were added and incubated with the cells for 48 hrs. The cells were then fixed with 4% paraformaldehyde, stained with 0.05% crystal violet, washed with PBS, and solubilized in 1% SDS. The absorbance of the plate at 595 nm was then measured, quantifying the number of viable cells.

[5] = tested on: MCF7 mammospheres (cancer stem-like cells); assay: formation and growth of mammospheres, Cell Titer Glo 3D; settings: 1 μM, 140 hrs
Description: To test the effect of compound 1 on the viability and proliferation of other resistant cancer cell types, we utilized a model of cancer stem-like cells that can be cultivated in vitro, so-called “mammospheres”. […] In this assay MCF7 spheres were dissociated to single cells/small spheres, seeded 10,000 cells per well on a special cell culture plastic that is non adherent in the Mammocult medium (Stem cell technologies) and compound 1 and compound 2 at 1 μM were added. This represents the non-cytotoxic concentration. Cells were left to grow and generate spheres for 140 hrs. The amount of cells was then measured by the Cell TiterGlo 3D reagent (Promega) that determines cell counts of 3D cultured cells as a function of their ATP content that is determined by a chemiluminescent assay.

MDA-MB-231 [6] = assay: annexin V/PI staining, cell death induction, 48 hrs
Description: (§4) This effect seems to be based mainly on the cytostatic effect of compound 1. To define the ability to kill cells, cell death-inducing potency (cytotoxic efficacy) of DFX and compound 1 have been tested via annexin V/PI staining commonly used as a measure of apoptotic/necrotic cell death. Briefly, cells were seeded in 12-well plate at 100,000 per well, incubated with the selected compounds for 48 hours, then floating cells were spun, adherent cells trypsinized and spun as well followed by the staining with AnnexinV-FITC and PI probes. Cells were then washed with PBS and measured via Fluorescence Activated Sorter.
(§5) Since compound 1 is an iron chelator, we have evaluated the effect of pre-loading compound 1 with iron at a 2:1 ratio and then applying it to the cells, followed by measurement of cell death using the Annexin V/PI staining as in example 4.

MCF7 [7] = assay: as above
Description: as §4, §5

MDA-MB-231 cells = assay: crystal violet assay, cellular viability, 48 hrs; settings: Homo sapiens, MDA-MB-231, 48 h, MDA-MB-231, crystal violet, read-out: IC50
Description: as §3
Compound 1 and the comparative compound deferasirox were tested in their efficacy to kill/suppress proliferation of malignant MDA-MB-231 cancer cells representing hard to treat triple negative breast cancer. The procedure is identical to that in example 12.

cancer cell lines = assay: crystal violet assay, cancer cell lines overall; settings: cancer cells, crystal violet
Description: as §3

IC50 (MDA-MB-231 cells): 464 nM
IC50 (cancer cell lines): ~100 nM
SMILES: Oc1ccccc1-c1nc(-c2ccccc2O)n(CCCCCCCCCC[P+](c2ccccc2)(c2ccccc2)c2ccccc2)n1 [Compound 2, (10-(3,5-bis(2-hydroxyphenyl)-1H-1,2,4-triazol-1-yl)decyl)triphenylphosphonium Bromide]
DCF-DA mean fluorescence (MDA-MB-231 [1]; 5 min, MDA-MB-231 (0 min = 100)): 255.9 (66.3)
DCF-DA mean fluorescence (MDA-MB-231 [1]; 10 min, MDA-MB-231): 343.5 (78.9)
DCF-DA mean fluorescence (MDA-MB-231 [1]; 15 min, MDA-MB-231): 555.6 (122.4)
DCF-DA mean fluorescence (MDA-MB-231 [1]; 30 min, MDA-MB-231): 473.4 (136.1)
DCF-DA mean fluorescence (MDA-MB-231 [1]; 60 min, MDA-MB-231): 332.0 (158.7)
DCF-DA mean fluorescence (MCF7 [2]; 5 min, MCF7 (0 min = 100)): 316.5 (96.0)
DCF-DA mean fluorescence (MCF7 [2]; 10 min, MCF7): 558.3 (186.5)
DCF-DA mean fluorescence (MCF7 [2]; 15 min, MCF7): 821.5 (73.8)
DCF-DA mean fluorescence (MCF7 [2]; 30 min, MCF7): 1201.0 (444.0)
DCF-DA mean fluorescence (MCF7 [2]; 60 min, MCF7): 1029.0 (407.7)
proportion of cells in G1 (MDA-MB-231 [3]; 24 hrs): 64.0 (7.7)
proportion of cells in G2 (MDA-MB-231 [3]; 24 hrs): 28.8 (8.0)
proportion of cells in S (MDA-MB-231 [3]; 24 hrs): 7.3
proportion of cells in G1 (MDA-MB-231 [3]; 48 hrs): 74.1 (3.7)
proportion of cells in G2 (MDA-MB-231 [3]; 48 hrs): 18.5 (5.1)
proportion of cells in S (MDA-MB-231 [3]; 48 hrs): 7.4
proportion of cells in G1 (MCF7 [4]; 24 hrs): 74.0 (1.3)
proportion of cells in G2 (MCF7 [4]; 24 hrs): 20.3
proportion of cells in S (MCF7 [4]; 24 hrs): 5.7
proportion of cells in G1 (MCF7 [4]; 48 hrs): 77.5 (2.2)
proportion of cells in G2 (MCF7 [4]; 48 hrs): 11.7 (3.8)
proportion of cells in S (MCF7 [4]; 48 hrs): 10.8 (4.8)
IC50 (MCF7 cells): 175 nM
chemiluminescence ATP values normalized to control sample set as 100 [5]: 2.82 (0.28)
dead cells (AnnexinV/PI) (MDA-MB-231 [6]; 1 μM): 26.7 (5.8) %
dead cells (AnnexinV/PI) (MDA-MB-231 [6]; 2 μM): 38.5 (7.3) %
dead cells (AnnexinV/PI) (MDA-MB-231 [6]; 5 μM): 87.8 (4.2) %
dead cells (AnnexinV/PI) (MCF7 [7]; 1 μM): 44.2 (0.3) %
dead cells (AnnexinV/PI) (MCF7 [7]; 2 μM): 41.2 (0.4) %
dead cells (AnnexinV/PI) (MCF7 [7]; 5 μM): 60.8 (18.6) %
